Reference: ChEMBL document CHEMBL5465560, “Selectivity Literature for EUbOPEN Chemogenomic Library” (2024)
Each block holds one molecule with its values, some of them ahead of it.

Columns and labels:
[1] = target: Homeodomain-interacting protein kinase 3 (Homo sapiens, UniProt Q9H422); test: Selectivity interaction (KinomeScan (DiscoverX)) EUB0001049a HIPK3; conditions: at 1 µM
[2] = target: Ribosomal protein S6 kinase alpha-1 (Homo sapiens, UniProt Q15418); test: Selectivity interaction (ActivX KiNativ screen (kinase selectivity in THP-1 cell lysates)) EUB0000639a RPS6KA1; type: subcellular; conditions: lysate, at 0.01 µM
Ribosomal protein S6 kinase alpha-1, sequence (Q15418 whole entry): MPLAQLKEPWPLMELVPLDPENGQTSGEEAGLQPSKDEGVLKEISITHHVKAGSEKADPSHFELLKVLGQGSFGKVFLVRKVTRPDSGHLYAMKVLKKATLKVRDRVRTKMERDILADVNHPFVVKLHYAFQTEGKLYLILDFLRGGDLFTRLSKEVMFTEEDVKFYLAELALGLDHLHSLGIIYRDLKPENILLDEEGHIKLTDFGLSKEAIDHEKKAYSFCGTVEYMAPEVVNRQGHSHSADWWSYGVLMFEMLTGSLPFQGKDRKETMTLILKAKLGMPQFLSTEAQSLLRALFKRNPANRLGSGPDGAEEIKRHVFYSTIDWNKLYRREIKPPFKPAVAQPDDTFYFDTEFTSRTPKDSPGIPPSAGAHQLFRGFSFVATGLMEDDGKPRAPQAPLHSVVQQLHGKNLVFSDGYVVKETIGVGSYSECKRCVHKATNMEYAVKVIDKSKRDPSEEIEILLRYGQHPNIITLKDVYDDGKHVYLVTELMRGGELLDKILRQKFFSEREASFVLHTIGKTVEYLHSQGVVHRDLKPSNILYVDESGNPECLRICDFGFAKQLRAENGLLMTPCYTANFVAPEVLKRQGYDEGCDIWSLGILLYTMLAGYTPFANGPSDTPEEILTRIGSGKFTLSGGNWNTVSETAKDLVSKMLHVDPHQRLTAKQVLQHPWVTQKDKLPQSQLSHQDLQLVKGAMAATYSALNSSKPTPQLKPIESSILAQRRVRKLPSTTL

[3] = target: Cyclin-dependent kinase 4/cyclin D1 (Homo sapiens, UniProt P11802); test: Selectivity interaction (Competition-binding assay (DiscoverX)) EUB0001632a CDK4; type: protein-complex assay
Cyclin-dependent kinase 4/cyclin D1, sequence (P11802 whole entry): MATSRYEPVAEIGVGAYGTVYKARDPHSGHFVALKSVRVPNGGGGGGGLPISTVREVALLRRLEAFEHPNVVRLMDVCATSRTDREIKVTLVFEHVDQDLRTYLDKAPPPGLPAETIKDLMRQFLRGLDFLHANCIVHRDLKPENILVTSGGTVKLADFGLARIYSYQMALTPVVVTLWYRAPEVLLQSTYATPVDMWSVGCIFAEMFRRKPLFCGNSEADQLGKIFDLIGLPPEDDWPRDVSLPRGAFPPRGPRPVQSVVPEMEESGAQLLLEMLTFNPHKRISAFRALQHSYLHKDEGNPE
Cyclin-dependent kinase 4/cyclin D1, sequence (P24385 whole entry, further chain): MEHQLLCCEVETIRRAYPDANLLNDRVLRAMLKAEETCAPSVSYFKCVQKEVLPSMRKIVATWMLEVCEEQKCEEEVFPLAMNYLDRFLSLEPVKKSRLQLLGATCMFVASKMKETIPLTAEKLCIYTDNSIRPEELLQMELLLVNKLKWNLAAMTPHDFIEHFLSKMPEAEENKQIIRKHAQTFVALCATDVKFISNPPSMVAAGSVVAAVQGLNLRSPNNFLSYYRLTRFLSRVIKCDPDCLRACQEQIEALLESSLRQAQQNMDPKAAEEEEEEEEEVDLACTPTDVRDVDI

[4] = target: T1, Gamma-aminobutyric acid receptor subunit alpha-1 (Homo sapiens) (UniProt P14867); test: Selectivity interaction (Eurofins CEREP Diversity Profile (receptors and ion channels)) EUB0000279b GABRA1; conditions: at 10 µM
T1 sequence (whole entry): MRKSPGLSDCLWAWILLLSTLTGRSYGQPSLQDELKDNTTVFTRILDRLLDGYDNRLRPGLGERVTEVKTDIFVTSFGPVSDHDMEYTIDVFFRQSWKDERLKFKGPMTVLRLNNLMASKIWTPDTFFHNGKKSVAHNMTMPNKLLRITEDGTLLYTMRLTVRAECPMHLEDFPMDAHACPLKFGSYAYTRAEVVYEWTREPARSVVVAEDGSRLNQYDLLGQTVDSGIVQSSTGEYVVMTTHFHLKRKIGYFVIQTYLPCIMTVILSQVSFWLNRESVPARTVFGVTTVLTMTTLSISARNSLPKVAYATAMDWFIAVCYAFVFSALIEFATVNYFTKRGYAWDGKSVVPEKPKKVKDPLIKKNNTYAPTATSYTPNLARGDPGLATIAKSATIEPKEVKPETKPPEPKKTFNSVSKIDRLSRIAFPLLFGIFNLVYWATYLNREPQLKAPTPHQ

[5] = target: Mitogen-activated protein kinase 11 (Homo sapiens) (UniProt Q15759); test: Selectivity interaction (KinomeScan (DiscoverX)) EUB0000595a MAPK11; conditions: at 10 µM
Mitogen-activated protein kinase 11 (Homo sapiens), sequence (Q15759 whole entry): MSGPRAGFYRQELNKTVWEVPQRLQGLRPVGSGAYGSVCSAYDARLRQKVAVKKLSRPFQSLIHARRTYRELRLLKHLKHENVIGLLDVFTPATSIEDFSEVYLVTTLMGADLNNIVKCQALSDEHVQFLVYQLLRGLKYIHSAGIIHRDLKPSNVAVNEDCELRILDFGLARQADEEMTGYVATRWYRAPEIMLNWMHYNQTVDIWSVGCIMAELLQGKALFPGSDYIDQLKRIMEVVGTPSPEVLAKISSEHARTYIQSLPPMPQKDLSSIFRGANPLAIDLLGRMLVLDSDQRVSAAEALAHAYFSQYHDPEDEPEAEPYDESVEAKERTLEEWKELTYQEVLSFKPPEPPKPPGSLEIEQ

[6] = target: Transient receptor potential cation channel subfamily M member 6 (Homo sapiens) (UniProt Q9BX84); test: Selectivity interaction (KinomeScan (DiscoverX)) EUB0000595a TRPM6; conditions: at 10 µM
[7] = target: Mitogen-activated protein kinase 3 (Homo sapiens, UniProt P27361); test: Selectivity interaction (KinomeScan (DiscoverX)) EUB0001079a MAPK3; conditions: at 1 µM
Mitogen-activated protein kinase 3, sequence (P27361 whole entry): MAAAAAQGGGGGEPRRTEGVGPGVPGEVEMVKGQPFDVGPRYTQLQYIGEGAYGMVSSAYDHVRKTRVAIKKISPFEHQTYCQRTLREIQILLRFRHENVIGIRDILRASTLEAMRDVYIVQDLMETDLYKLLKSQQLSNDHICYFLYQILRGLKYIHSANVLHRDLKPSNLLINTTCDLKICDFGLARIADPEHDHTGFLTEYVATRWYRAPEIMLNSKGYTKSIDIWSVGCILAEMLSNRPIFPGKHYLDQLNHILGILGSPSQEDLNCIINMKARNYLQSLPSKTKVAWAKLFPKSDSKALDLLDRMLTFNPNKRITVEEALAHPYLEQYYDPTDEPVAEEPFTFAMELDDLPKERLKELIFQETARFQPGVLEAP

[8] = target: Transcription initiation factor TFIID subunit 1-like (Homo sapiens) (UniProt Q8IZX4); test: Selectivity interaction (Human bromodomain panel (DSF assay)) EUB0000233b TAF1L
[9] = target: Receptor-interacting serine/threonine-protein kinase 2 (Homo sapiens, UniProt O43353); test: Selectivity interaction (Upstate Kinase Profiler service (Millipore)) EUB0000056c RIPK2; conditions: at 1 µM
Receptor-interacting serine/threonine-protein kinase 2, sequence (O43353 whole entry, canonical isoform): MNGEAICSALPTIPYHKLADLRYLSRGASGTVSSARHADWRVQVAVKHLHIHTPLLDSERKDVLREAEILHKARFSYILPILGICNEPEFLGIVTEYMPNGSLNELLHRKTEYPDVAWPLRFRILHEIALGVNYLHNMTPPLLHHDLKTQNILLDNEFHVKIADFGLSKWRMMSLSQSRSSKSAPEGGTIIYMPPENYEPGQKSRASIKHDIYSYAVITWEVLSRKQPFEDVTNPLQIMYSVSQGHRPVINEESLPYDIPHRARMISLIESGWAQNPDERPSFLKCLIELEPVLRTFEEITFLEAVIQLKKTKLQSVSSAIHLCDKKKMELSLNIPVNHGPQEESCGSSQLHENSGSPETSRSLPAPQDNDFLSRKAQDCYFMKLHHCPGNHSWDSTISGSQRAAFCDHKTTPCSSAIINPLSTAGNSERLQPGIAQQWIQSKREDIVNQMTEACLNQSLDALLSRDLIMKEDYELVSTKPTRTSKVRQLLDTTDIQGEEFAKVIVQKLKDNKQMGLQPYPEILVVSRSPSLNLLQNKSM

[10] = target: Phosphatidylinositol 4,5-bisphosphate 3-kinase catalytic subunit beta isoform (Homo sapiens) (UniProt P42338); test: Selectivity interaction (KinomeScan (DiscoverX)) EUB0000655a PIK3CB; conditions: at 10 µM
[11] = target: T2, Aurora kinase A (Homo sapiens) (UniProt O14965); test: Selectivity interaction (KinomeScan (DiscoverX)) EUB0001619a STK6; conditions: at 1 µM
T2 sequence (whole entry): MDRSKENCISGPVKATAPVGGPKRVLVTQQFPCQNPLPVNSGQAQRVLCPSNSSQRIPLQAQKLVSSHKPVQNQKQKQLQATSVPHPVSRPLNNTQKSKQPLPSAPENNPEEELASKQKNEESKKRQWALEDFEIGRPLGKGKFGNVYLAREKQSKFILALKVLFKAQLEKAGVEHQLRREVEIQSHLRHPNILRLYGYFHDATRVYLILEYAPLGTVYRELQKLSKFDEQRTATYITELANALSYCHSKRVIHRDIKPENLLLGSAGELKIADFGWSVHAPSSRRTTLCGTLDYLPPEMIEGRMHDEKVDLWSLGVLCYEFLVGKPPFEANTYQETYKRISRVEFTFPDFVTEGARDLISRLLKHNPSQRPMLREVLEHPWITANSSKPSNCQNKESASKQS

[12] = target: T3, Mitogen-activated protein kinase kinase kinase kinase 3 (Homo sapiens) (UniProt Q8IVH8); test: Selectivity interaction (KinomeScan (DiscoverX)) EUB0000618a MAP4K3; conditions: at 10 µM
T3 sequence (whole entry): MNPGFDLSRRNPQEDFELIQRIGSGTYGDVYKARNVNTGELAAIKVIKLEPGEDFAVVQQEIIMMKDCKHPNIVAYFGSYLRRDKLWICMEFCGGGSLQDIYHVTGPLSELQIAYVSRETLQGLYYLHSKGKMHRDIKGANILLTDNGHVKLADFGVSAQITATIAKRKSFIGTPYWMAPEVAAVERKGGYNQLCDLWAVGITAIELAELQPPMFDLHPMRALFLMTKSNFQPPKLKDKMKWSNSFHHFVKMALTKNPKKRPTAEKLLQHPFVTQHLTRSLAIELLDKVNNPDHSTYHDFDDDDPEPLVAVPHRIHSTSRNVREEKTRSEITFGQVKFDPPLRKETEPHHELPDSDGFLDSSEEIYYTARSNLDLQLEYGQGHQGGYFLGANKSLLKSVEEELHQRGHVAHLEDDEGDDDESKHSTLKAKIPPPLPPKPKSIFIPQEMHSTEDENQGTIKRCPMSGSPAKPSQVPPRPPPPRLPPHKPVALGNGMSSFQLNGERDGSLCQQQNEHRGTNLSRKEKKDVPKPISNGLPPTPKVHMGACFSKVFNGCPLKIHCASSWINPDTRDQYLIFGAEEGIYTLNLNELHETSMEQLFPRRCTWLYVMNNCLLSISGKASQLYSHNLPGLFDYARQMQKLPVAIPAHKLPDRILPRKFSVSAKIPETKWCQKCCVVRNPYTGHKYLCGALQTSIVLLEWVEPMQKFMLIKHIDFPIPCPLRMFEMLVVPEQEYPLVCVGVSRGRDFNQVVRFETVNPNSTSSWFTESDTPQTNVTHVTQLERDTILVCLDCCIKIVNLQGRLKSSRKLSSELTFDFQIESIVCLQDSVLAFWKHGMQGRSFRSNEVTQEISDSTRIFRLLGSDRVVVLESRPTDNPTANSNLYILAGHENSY

[13] = target: L-type calcium channel Cav1.2 (CACNA1C) (Homo sapiens, UniProt Q13936); test: Selectivity interaction (Panel of kinases, GPCRs, ion channels and transporters (enzymatic assay)) EUB0000223bCl CACNA1C
L-type calcium channel Cav1.2 (CACNA1C), sequence (Q13936 whole entry): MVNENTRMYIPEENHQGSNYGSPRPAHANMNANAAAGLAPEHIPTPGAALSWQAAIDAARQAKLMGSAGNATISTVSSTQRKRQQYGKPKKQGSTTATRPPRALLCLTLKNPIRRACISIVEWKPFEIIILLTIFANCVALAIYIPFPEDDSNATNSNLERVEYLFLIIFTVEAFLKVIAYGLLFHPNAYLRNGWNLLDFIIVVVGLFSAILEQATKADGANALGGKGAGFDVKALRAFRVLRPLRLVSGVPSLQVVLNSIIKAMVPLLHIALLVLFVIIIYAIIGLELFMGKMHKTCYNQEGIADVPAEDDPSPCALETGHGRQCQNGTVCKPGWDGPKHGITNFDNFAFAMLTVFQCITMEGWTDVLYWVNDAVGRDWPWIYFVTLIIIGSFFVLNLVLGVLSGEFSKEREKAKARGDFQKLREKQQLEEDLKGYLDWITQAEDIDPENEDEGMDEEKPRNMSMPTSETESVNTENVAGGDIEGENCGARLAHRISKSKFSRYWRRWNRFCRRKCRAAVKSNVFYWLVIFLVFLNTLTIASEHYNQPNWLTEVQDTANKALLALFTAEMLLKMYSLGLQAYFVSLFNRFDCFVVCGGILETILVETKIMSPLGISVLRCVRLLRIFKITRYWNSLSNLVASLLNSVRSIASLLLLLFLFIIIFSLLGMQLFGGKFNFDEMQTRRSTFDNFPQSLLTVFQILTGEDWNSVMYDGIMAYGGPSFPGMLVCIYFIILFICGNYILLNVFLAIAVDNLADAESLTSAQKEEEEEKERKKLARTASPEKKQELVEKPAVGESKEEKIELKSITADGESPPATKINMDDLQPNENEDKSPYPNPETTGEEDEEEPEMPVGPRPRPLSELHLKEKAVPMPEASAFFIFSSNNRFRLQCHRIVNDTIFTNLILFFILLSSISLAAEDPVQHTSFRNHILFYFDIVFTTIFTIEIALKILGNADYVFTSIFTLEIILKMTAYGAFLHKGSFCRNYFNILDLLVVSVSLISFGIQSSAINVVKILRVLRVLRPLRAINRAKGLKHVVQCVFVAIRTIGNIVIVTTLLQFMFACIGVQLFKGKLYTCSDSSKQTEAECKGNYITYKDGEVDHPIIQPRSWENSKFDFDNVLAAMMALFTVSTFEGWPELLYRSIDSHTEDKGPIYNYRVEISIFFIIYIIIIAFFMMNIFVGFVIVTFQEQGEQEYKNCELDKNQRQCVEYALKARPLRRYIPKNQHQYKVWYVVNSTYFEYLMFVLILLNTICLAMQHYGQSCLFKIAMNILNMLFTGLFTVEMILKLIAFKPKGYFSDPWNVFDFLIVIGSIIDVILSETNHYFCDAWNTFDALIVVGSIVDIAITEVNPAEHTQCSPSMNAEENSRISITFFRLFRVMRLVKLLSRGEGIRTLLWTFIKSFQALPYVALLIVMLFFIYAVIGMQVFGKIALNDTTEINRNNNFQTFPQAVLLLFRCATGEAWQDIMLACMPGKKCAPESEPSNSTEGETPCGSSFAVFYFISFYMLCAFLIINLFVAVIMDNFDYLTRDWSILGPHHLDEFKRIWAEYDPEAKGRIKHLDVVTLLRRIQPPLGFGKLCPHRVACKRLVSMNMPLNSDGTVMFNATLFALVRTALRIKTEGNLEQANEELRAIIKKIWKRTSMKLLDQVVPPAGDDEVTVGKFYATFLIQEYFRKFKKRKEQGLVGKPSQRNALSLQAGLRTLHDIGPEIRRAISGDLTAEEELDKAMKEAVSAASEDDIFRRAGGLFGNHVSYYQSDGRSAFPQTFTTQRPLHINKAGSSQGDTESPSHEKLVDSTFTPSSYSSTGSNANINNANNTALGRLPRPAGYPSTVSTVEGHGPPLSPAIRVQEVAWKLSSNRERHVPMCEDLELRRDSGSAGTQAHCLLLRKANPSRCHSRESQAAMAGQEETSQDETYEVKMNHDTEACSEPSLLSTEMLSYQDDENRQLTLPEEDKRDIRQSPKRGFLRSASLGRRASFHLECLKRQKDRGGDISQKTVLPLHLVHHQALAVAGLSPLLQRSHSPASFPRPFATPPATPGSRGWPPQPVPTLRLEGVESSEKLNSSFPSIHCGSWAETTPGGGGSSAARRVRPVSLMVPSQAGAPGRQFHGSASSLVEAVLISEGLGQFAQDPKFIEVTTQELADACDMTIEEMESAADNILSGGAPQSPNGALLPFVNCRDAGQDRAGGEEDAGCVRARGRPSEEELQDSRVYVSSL

SMILES: COc1cc(Nc2nc(C)cc(-c3cnn4nc(OC)ccc34)n2)cc(C(F)(F)F)c1
% of control [1]: 95%

% of inhibition [2]: 16.9%
SMILES: CC[C@@H]1[C@H](F)C(=O)N[C@@H]1COc1nccc2cc(C(N)=O)c(OC)cc12 [ZIMLOVISERTIB]

Kd [3]: > 10 µM
SMILES: Cn1cc(-n2cnc3c(NCc4nc5cc(Cl)c(Cl)cc5[nH]4)nc(N4CCOCC4)nc32)cn1

% of control [4]: 112%
SMILES: CC(=O)c1cc(-c2ccccc2OCC2CC2)c2ncccn12

SMILES: COCC(=O)NC/C=C/c1ccc2ncnc(Nc3ccc(Oc4ccc(C)nc4)c(C)c3)c2c1 [CP-724714]
% of control [5]: 100%
% of control [6]: 100%

SMILES: Nc1cnc(N2CCc3cc(S(=O)(=O)Nc4c(F)cc(Cl)cc4F)cc(N4CCCC4=O)c32)nc1 [TP-020n]
% of control [7]: 91%

dTM [8]: < 2 K
SMILES: CN(C)CCCOc1ccc(-c2cc(NCCCn3cccn3)nc(S(C)(=O)=O)n2)cc1

% of inhibition [9]: 74%
SMILES: Cc1ccc(-c2ccc3c(ccc4sc5c(c43)NC[C@@H](C)NC5=O)n2)cn1

SMILES: CN(C)CCOc1ccc(-c2nc(-c3ccncc3)c(-c3ccc4c(c3)CC/C4=N\O)[nH]2)cc1
% of control [10]: 100%

SMILES: N#Cc1cccc(-c2c[nH]c3ncnc(N4CCOCC4)c23)c1
% of control [11]: 57%

SMILES: O[C@H]1CC[C@H](Nc2ncc3nc(Nc4c(F)cc(F)cc4F)n([C@H]4CCOC4)c3n2)CC1
% of control [12]: 85%

SMILES: COc1cc(C(=O)N2CC[C@@H](O)[C@@H](N)C2)cc2nc(-c3cc4ccccc4n3CC3CC3)n(C)c12
XC50 [13]: 3.98 µM
